Measurements: patent publication US10647747B2, “Cyclosporin derivatives and uses thereof” (S&T Global Inc., priority 2010, dated 2020)
*1 amine or outer side, *2 acyl side, *3 side chain or, on linkers, in order; H or OH if unused. Where a SMILES comes first, the peptide text is derived from it. [ ]: non-standard residue; d: D form. X3 = CC=CCC(C)C(O)C(C(=O)[*:2])N(C)[*:1]; X5 = CSCOC(C)(C)CC(C(=O)[*:2])N(C)[*:1]; X4 = CCN(CC)CCSC(C(=O)[*:2])N(C)[*:1]; NMeL = CN[CH](CC(C)C)C(=O)O; NMeV = CN[CH](C(=O)O)C(C)C; Abu = CC[CH](N)C(=O)O

System: rat neuronal mitochondria
Experiment: Mitochondrial swelling assay (inhibition of mitochondrial permeability transition, MPT)
Type: biochemical
Conditions: compound 100 nM added 5 minutes before Ca2+; swelling induced by 100 micromolar calcium chloride; absorbance 620nm; control 100
Protocol: The effect of cyclosporine analogs on mitochondrial permeability transition (MPT) was determined by a modified mitochondrial swelling assay measured as an influx of Ca^2+, published by J. Blattner et al., 2001, Analytical Biochem, 295, 220-226. Briefly, rat neuronal mitochondria in an ice-cold sucrose buffer were obtained after rat whole-body perfusion and a series of centrifugation. The total protein concentration in each sample batch was determined for standardization between assays. The mitochondrial swelling was induced by 100 micromolar of Calcium Chloride. Each compound (100 nM) was added to mitochondria 5 minutes before the addition of Ca^2+. The value of absorbance at the certain wavelength (620nm) reflected the degree of mitochondrial swelling. The percentage of the swelling was calculated by comparing the absorbance in the present or absent compound of the interests.

Structure (SMILES) | Mitochondrial Swelling Relative % [%]
C/C=C/C[C@@H](C)[C@@H](O)[C@H]1C(=O)N[C@@H](CC)C(=O)N(C)[C@H](CSCCN(CC)CC)C(=O)N(C)[C@@H](CC(C)(C)O)C(=O)N[C@@H](C(C)C)C(=O)N(C)[C@@H](CC(C)C)C(=O)N[C@@H](C)C(=O)N[C@H](C)C(=O)N(C)[C@@H](CC(C)C)C(=O)N(C)[C@@H](CC(C)C)C(=O)N(C)[C@@H](C(C)C)C(=O)N1C | 55.7
CC=CCC(C)C(O)C1C(=O)NC(CC)C(=O)N(C)C(SCCN(CC)CC)C(=O)N(C)C(CC(C)(C)OCSC)C(=O)NC(C(C)C)C(=O)N(C)C(CC(C)C)C(=O)NC(C)C(=O)NC(C)C(=O)N(C)C(CC(C)C)C(=O)N(C)C(CC(C)C)C(=O)N(C)C(C(C)C)C(=O)N1C (centres unmarked) (cyclo([X3][Abu][X4][X5]V[NMeL]AA[NMeL][NMeL][NMeV]); configuration not given here) | 52.4
